The AC50 is the concentration at which the activity in the assay is half-maximal.

Inconclusive results are not listed. Calls of active or inactive are those of the source.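 How the source made its calls: active means compounds lowering the luciferase signal with a fitted half-maximal dose at most twice their top valid dose (cut at about 30 µM in these data); inconclusive means flat fits with moderate signal loss, or poor fits; inactive means the rest.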

These results are taken from PubChem BioAssay AID743417 (Broad Institute, 2014).

The test system of the test is Clone20 osteoblast Shn3 3'UTR firefly luciferase, 24 h. As to the kind of experiment: Schnurri-3 3'UTR-luciferase signal suppressors – cell-based, Clone20 osteoblasts, luminescence, dry powder, set 2, dose response (AID 743417).
On to `Cc1cc(C)c(O)c(-c2cc(C(=O)Nc3ccc(S(=O)(=O)N4CCOCC4)cc3)[nH]n2)c1`, for which the AC50 is 5.48 µM. With `Cc1ccnc2c1ccc1c(C)ccnc12`, the half-maximal activity concentration (AC50) was 0.857 µM. For `CC(O)CC(=O)OC[C@]12CC[C@H]3[C@@](C)(CC[C@H]4C(C)(C)CCC[C@]34C)[C@@H]1CC(C1=CC(=O)OC1O)O2` (stereo partly specified), the AC50 is 3.75 µM.

Consider `CC(=O)c1cn(Cc2ccccc2C#N)c2ccccc12`, for which the AC50 is 0.527 µM. The figure for `CCOC(=O)c1oc2ccc(S(=O)(=O)n3nc(-c4ccccc4)cc3N)cc2c1C` is 0.854 µM; for `Cc1ccc(S(=O)(=O)NCCc2cc3ccc(C)cc3[nH]c2=O)cc1` it is > 70 µM (inactive); for `Cc1cc(C(=O)NC2CCCc3c2cnn3-c2cccc(C)c2C)n(C)n1` (stereo unspecified) it is less than 0.26 µM. For `Cc1ccc(C)c(N2CCN(C(=O)CCS(=O)(=O)c3ccc4c(c3)NC(=O)C(C)S4)CC2)c1` (stereo unspecified), the concentration at half-maximal activity (AC50) was 4.47 µM. `CCOc1cc2c(cc1OCC)-n1cccc1C(c1ccc(C(C)C)cc1)NC2` (stereo unspecified): the AC50 was 7.22 µM.

As to `COc1cc(C)c(C(=O)CC(=O)c2c(C)cc(OC)cc2C)c(C)c1`, the half-maximal activity concentration (AC50) is 7.4 µM. The figure for `COc1ccc(NC(=O)C2Cc3c(-c4cccc(C(C)=O)c4)ccnc3O2)cc1OC` (stereo unspecified) is 0.799 µM; for `CS(=O)(=O)c1ccc(C(=O)OCC(=O)N2CCOCC2)cc1[N+](=O)[O-]` it is 17.5 µM; for `COc1ccc(C(=O)C(CN2CCOCC2)c2ccccc2)cc1` (stereo unspecified) it is 5.59 µM. In the case of `Cc1cc(C)c(C(N)=O)c(SCC(=O)c2cc(C)n(-c3cc(C)on3)c2C)n1`, the AC50 was 0.942 µM. Take `O=C(Nc1ccc(S(=O)(=O)N2CCCC2)cc1)c1ccc(CN2CCc3ccccc3C2)cc1`: the AC50 was 0.575 µM.

For the compound `CCN1CCN(Cc2ccc(NC(=O)c3ccc(C)c(NC(=O)c4c[nH]c5cc(C(F)(F)F)ccc5c4=O)c3)cc2C(F)(F)F)CC1`, the AC50 is 3.13 µM. In the case of `C=CCOc1nc2c(c(=O)n(C)c(=O)n2C)n1Cc1ccc(Cl)cc1` it was 1.03 µM; in that of `COc1ccc(-c2cc(C(F)(F)F)nc(S(C)(=O)=O)n2)cc1`, 4.46 µM; in that of `O=C(Nc1ccccc1Cl)/C(Cl)=C(\Cl)S(=O)c1ccccc1` (stereo unspecified), 0.438 µM.

As to `Cc1cc(O)c(C(C)C)cc1C1(c2cc(C(C)C)c(O)cc2C)OC(=O)c2ccccc21`, the AC50 is 9.45 µM. As for `O=C(Nc1ccccc1)C1=C(c2ccccc2)S(=O)(=O)CCS1(=O)=O`, the AC50 is 1.37 µM. Turning to `COc1cc2ncnc(N[C@H](C)c3ccccc3)c2cc1OC`, the AC50 was 8.72 µM. The figure for `O=C(Nc1cccc(S(=O)(=O)Nc2ccc(Cl)cc2)c1)c1ccc(Cl)nc1` is 0.606 µM.

For `CN(C)c1ccc(C=c2c3cc([N+](=O)[O-])ccc3n3c2cc(-c2ccccc2)[n+]3C)cc1`, the AC50 is 3.3 µM.

For the compound `CS(=O)(=O)c1nc(-c2ccccc2)cc(C(F)(F)F)n1`, the AC50 is 1.53 µM. Consider `COc1ccc(-c2cc3nc(C)n(N)c(=O)c3s2)cc1`, for which the AC50 was 1.13 µM. For the compound `CCCCCCCN1C(Nc2ccccc2)=NC[C@@H]1Cc1ccccc1`, the AC50 was 4.82 µM. `CCOC(=O)c1c(NC(=O)COc2cccc3c2CCN(C)C3=O)sc2c1CCC2`: the AC50 was 5.44 µM. With `O=C(NCCc1ccccc1)c1ccc2c(c1)OCCCO2`, the AC50 was 1.05 µM.

With `CC(=O)Nc1nc(C)c(-c2csc(Nc3cccc(C(C)=O)c3)n2)s1`, the AC50 was 1.67 µM.

Turning to `Cn1c(=O)c2c(nc(NCc3ccco3)n2C/C=C/c2ccccc2)n(C)c1=O`, the AC50 was 1.08 µM. Take `CCOC(=O)N1CCC(NC(=O)C2CCCN(Cc3nc(-c4cccc(C)c4)oc3C)C2)CC1` (stereo unspecified): the AC50 is 3.06 µM. In the case of `CC(=O)NC(c1ccc(C)cc1)c1cc(Cl)c2cccnc2c1O` (stereo unspecified) it was 2.12 µM; in that of `CC(C)CC(N)c1csc(NC(=O)c2cc(C(C)(C)C)nn2Cc2ccccc2)n1` (stereo unspecified), 4.85 µM. The figure for `O=C(Nc1ccc(Cl)cc1)c1cc(S(=O)(=O)N2CCOCC2)cs1` is 4.23 µM; for `COc1ccc(CC(N)c2csc(NC(=O)c3cc(C(C)(C)C)nn3Cc3ccccc3)n2)cc1` (stereo unspecified) it is 9.53 µM; for `OC1(c2cccc(C(F)(F)F)c2)CCN(c2ncnc3c2[nH]c2ccc(F)cc23)CC1` it is 1.87 µM.

In the case of `O=C(Nc1ccc(Br)cc1)c1ccc(F)c(S(=O)(=O)NCc2cccs2)c1`, the AC50 is 3.05 µM. As for `CCN1C(=O)C(=Cc2cccc(OC)c2Oc2ccc([N+](=O)[O-])cc2[N+](=O)[O-])SC1=S`, the AC50 was 1.89 µM. The figure for `CC(C)C[C@H]1CN=C(N(C)C)N1CC1CCCCCC1` is 5.03 µM. On to `CC(=O)c1ccc(N2CCC(c3cc(-c4ccc(Cl)cc4)n[nH]3)CC2)c([N+](=O)[O-])c1`, for which the AC50 is 5 µM. The figure for `Cc1ccc(CNC(=O)c2cc(-c3ccccc3C)nn2CC2CC(c3cccnc3)=NO2)cc1` (stereo unspecified) is > 70 µM (inactive); for `COCCNc1nc(NCc2ccc(C(C)C)cc2)c2sccc2n1` it is 3.95 µM. The figure for `C[C@H]1COC(=O)[C@H](NC(=O)OCC2c3ccccc3-c3ccccc32)C/C=C\C[C@H](CC(=O)N(CCO)Cc2ccccc2)C(=O)N1` is 6.08 µM; for `O=C(Nc1nc(-c2ccccn2)cs1)c1ccc(F)c(S(=O)(=O)N2CCOCC2)c1` it is 1.32 µM. Consider `CCOc1ccc2nc(SC3CC(=O)N(c4ccc(C)cc4)C3=O)sc2c1` (stereo unspecified), for which the AC50 is 15.6 µM. In the case of `O=C(c1cc2nc(-c3ccc(F)cc3)cc(C(F)(F)F)n2n1)N1CCCCC1c1cccnc1` (stereo unspecified), the AC50 is 2.37 µM. In the case of `COc1cccc(CN(C)C(=O)c2ccc(OCC(=O)Nc3cccc(C(F)(F)F)c3)c(OC)c2)c1` it was 4.93 µM; in that of `CCCc1nnc(NC(=O)c2nc(S(=O)(=O)Cc3ccc(C)cc3)ncc2Cl)s1`, 0.538 µM; in that of `CC(=O)c1ccc(N2CCN(c3ccc(S(=O)(=O)NCCCN(C)C)cc3[N+](=O)[O-])CC2)cc1`, 3.78 µM. As to `O=C(Nc1nc2c(F)cc(F)cc2s1)c1ccccn1`, the AC50 was 6.69 µM. The figure for `C/C(Cl)=C\Cn1c(NCCc2ccccc2)nc2c1c(=O)n(C)c(=O)n2C` is 0.283 µM; for `COc1ccccc1CNc1nc(NCC2CC2)nc2ccsc12` it is 4.16 µM.

Turning to `CCCCCc1nc2c(c(=O)c3ccccc3n2C)c(=O)n1C1CCCCCC1`, the AC50 was 8.21 µM. For `CC(C)(C)n1ncc2c(=O)n(Cc3cccc(Cn4cnc5c(cnn5C(C)(C)C)c4=O)c3F)cnc21`, the concentration at half-maximal activity (AC50) is 1.09 µM. In the case of `COc1ccc(-c2noc(CCC(=O)NCCCN3CCC(Cc4ccccc4)CC3)n2)cc1` it was 4.03 µM. Consider `CC(=O)NC(c1cccc([N+](=O)[O-])c1)c1ccc2cccnc2c1O` (stereo unspecified), for which the AC50 was 0.889 µM. As for `CC(=O)N1c2ccc(S(=O)(=O)N3CCC(C(=O)N4CCN(c5ccccc5F)CC4)CC3)cc2CC1C` (stereo unspecified), the AC50 is 5.41 µM.

In the case of `CCC(C)NS(=O)(=O)c1ccc(S(=O)(=O)N2CCCC3(CCCCC3)C2)cc1` (stereo unspecified), the AC50 is 3.44 µM. Take `CCn1nc(/C=C/c2ccccc2)nc2c(=O)n(C)c(=O)nc1-2`: the AC50 is 2.57 µM. As for `C=C[C@]1(C)C=C2C(=O)[C@@]3(O)OC(=O)[C@@]4(CCCC(C)(C)[C@H]34)[C@@]2(O)CC1`, the AC50 was 4.98 µM. With `Oc1cccc2cc(Nc3ccccc3)cnc12`, the half-maximal activity concentration (AC50) is 0.644 µM.

As for `COc1ccccc1NC(=O)c1nc(S(=O)(=O)Cc2ccccc2)ncc1Cl`, the AC50 was 0.492 µM.

Regarding `CC(=O)OCCCNc1cc(Sc2nc3ccccc3s2)c2nonc2c1[N+](=O)[O-]`, the AC50 was 4.7 µM. With `Cc1ccc(S(=O)(=O)NCc2ccncc2)cc1C`, the AC50 was 0.585 µM. The figure for `O=C(OCn1ncc(Cl)c(Cl)c1=O)c1cccc(C(F)(F)F)c1` is 3.74 µM; for `CC(C)c1ccc(NC(=O)Nc2nc(C(N)CCc3ccccc3)cs2)cc1` (stereo unspecified) it is 5.36 µM; for `COc1ccc([C@@]23Oc4cc(OC)cc(OC)c4[C@]2(O)[C@H](O)[C@H](C(=O)N(C)C)[C@H]3c2ccccc2)cc1` it is less than 0.26 µM. On to `CCCOc1ccccc1C1CC(=O)Nc2cc3c(cc21)OCO3` (stereo unspecified), for which the AC50 was 5.72 µM.

For the compound `Oc1c(CN2CCN(c3ccccc3)CC2)cc(Br)c2cccnc12`, the AC50 is 1.92 µM. Regarding `Nc1nonc1C(=O)NCCNCc1cc(Br)ccc1OCc1ccccc1F`, the AC50 is 2.5 µM. The figure for `CCCCNc1cccc2c1S(=O)(=O)N(CCCC)CC(COCc1ccccc1)O2` (stereo unspecified) is 8.93 µM; for `Fc1ccc2[nH]c3c(NCc4ccccc4)ncnc3c2c1` it is 3.09 µM. For the compound `COc1ccccc1C(=O)Nc1nc(-c2ccc(S(=O)(=O)N3CCOCC3)cc2)cs1`, the AC50 was 1.21 µM. `Cc1ccc(OC(=O)CCC(=O)Oc2ccc(C)cc2C)c(C)c1`: the half-maximal activity concentration (AC50) was 3.51 µM. Regarding `CCN(C(=O)c1ccc(C(C)(C)C)cc1)c1nnc(Cn2nnc3ccccc32)s1`, the AC50 is 1.35 µM. In the case of `Cc1ccccc1CS(=O)(=O)c1nnc([C@H](Cc2ccccc2)NC(=O)OC(C)(C)C)o1`, the AC50 is 1.23 µM. As for `COc1cccc(-c2cc(N3CCN(C(=O)c4ccoc4)CC3)n3nc(-c4cccc(Cl)c4)cc3n2)c1`, the AC50 was 6.22 µM.

For the compound `CCOC(=O)C1CCCN(S(=O)(=O)c2ccc(S(=O)(=O)N(CC)CC)cc2)C1` (stereo unspecified), the AC50 was 0.512 µM. As for `CCC(NC(=O)Nc1nnc(C(F)(F)F)s1)(C(F)(F)F)C(F)(F)F`, the AC50 is 4.15 µM. Take `CCCCN(C(C)=O)c1ccc2c(c1)C1CC2CCN1C(=O)OCc1ccccc1` (stereo unspecified): the AC50 is 1.37 µM. `Fc1ccc2[nH]c3c(N4CCSCC4)ncnc3c2c1`: the concentration at half-maximal activity (AC50) was 2.76 µM.

For the compound `CCCCOC(=O)c1[nH]c2c(c1C)C(=O)CC(c1cc(OC)c(OC)c(OC)c1)C2` (stereo unspecified), the AC50 is 1.35 µM.

Turning to `CCOC(=O)c1ccc(NC(=O)Cn2ncc(Cl)c(Cl)c2=O)cc1`, the AC50 is 2.32 µM. The figure for `CC(Sc1nc2ccccc2c(=O)n1C)C(=O)NC1CCCCC1C` (stereo unspecified) is 3.46 µM; for `CS(=O)(=O)c1nc(-c2ccc(F)cc2)cc(C(F)(F)F)n1` it is 2.72 µM; for `COc1ccc(-n2nc3c(N4CCC(C(=O)NCC(C)c5ccccc5)CC4)nnc(C)c3c2C)cc1` (stereo unspecified) it is 3.25 µM. On to `CCCCCCCNC(=O)C1(CC2CC(c3cccc(Br)c3)=NO2)CCNCC1` (stereo unspecified), for which the AC50 is 11.7 µM. In the case of `Cc1cccc(NC(=O)CSc2nc3ccccc3c(=O)n2C)c1C`, the half-maximal activity concentration (AC50) is 2.98 µM. As to `CCCN(CCC)S(=O)(=O)c1ccc(C(=O)Nc2nnc(-c3cc(OC)cc(OC)c3)o2)cc1`, the AC50 is 2.64 µM.

As to `O=C(Nc1ccc2oc(-c3ccncc3)nc2c1)c1ccc([N+](=O)[O-])o1`, the concentration at half-maximal activity (AC50) is 18.6 µM.
